According to US12448389B2, “BRM targeting compounds and associated methods of use” (Prelude Therapeutics Incorporated, priority 2020, dated 2025):

Tests used:
SMARCA4-HiBiT = target: T1, SMARCA4-HiBiT (Homo sapiens, UniProt P51532); experiment: SMARCA4 HiBiT degradation assay in HeLa cells; type: cell-based; details: 18 hours incubation; for DC50: read-out: HeLa-HiBit-SM4 DC50; for Dmax: HeLa, read-out: HeLa-HiBit-SM4 Dmax (%)
T1 construct: SMARCA4-HiBiT knock-in Hela monoclonal cell (CS3023226); host or cells: HeLa monoclonal knock-in line (CRISPR HiBiT knock-in at the endogenous locus, heterozygous)
T1 sequence (P51532 whole entry): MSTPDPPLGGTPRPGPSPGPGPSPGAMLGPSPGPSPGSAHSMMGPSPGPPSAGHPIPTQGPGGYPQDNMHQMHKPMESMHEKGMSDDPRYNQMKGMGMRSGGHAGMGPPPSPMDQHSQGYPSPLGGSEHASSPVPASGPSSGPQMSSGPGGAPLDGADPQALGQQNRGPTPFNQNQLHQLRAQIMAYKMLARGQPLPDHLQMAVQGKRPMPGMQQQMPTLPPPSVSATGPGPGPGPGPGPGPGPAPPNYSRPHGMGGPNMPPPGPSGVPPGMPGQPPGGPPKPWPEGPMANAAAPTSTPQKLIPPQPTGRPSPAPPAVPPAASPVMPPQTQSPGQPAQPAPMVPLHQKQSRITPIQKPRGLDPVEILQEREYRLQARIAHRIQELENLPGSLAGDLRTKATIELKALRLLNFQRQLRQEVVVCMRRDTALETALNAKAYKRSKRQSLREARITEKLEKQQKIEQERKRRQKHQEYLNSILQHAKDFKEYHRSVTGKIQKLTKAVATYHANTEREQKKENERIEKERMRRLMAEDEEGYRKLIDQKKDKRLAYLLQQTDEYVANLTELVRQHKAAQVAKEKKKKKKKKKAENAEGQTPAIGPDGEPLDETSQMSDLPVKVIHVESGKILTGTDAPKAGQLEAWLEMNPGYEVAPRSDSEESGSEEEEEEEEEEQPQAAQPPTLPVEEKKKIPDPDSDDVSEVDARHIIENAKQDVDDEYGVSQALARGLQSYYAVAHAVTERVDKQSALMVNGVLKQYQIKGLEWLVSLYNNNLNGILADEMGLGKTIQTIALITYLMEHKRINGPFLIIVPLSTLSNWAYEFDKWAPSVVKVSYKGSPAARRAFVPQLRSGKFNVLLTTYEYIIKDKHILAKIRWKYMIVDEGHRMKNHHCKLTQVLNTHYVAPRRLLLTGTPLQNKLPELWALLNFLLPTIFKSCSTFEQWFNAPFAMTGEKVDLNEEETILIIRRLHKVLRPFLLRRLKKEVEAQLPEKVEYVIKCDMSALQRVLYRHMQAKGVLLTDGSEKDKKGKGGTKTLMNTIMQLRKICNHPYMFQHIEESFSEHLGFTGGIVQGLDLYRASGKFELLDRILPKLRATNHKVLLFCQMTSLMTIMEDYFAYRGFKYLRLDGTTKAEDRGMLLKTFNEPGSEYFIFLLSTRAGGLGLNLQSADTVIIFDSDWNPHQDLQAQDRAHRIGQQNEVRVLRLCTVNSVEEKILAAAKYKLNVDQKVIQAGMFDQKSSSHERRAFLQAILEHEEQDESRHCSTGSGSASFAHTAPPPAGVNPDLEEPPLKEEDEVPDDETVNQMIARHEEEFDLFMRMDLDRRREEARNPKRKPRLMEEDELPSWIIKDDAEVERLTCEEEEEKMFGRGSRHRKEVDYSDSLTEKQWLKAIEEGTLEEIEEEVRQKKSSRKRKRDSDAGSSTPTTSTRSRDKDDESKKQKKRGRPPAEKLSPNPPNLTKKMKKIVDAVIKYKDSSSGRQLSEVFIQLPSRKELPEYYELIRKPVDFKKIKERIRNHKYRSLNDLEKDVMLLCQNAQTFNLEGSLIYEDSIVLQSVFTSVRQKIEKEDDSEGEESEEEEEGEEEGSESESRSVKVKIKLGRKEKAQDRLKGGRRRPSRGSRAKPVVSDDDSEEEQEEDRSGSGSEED
Procedure: (§1) HiBiT peptide knock-in of SMARCA2 in LgBiT expressing HEK293T cells was performed by CRISPR-mediated tagging system as described Promega. The homozygous HiBiT knock-in on c-terminus SMARCA2 was confirmed by sanger sequence. SMARCA2-HiBiT knock-in Hela monoclonal cell (CS302366) and SMARCA4-HiBiT knock-in Hela monoclonal cell (CS3023226) were purchased from Promega. The heterozygous HiBiT-knock-in was confirmed by sanger sequence in both SMARCA2-HiBiT and SMARCA4-HiBiT monoclonal cells.
(§2) SMARCA2 HiBiT and SMARCA4 HiBiT Degradation Assay in HeLa Cells
(§3) Dispense 10 ul aliquot of prepared Hela-SMARCA2-HiBiT or Hela-SMARCA4-HiBiT cells (1:1 ratio of cells:Trypan Blue (#1450013, Bio-Rad)) onto cell counting slide (#145-0011, Bio-Rad) and obtain cell density and cell viability using cell counter (TC20, Bio-Rad). Remove appropriate volume of resuspended cells from culture flask to accommodate 2500 cells/well @20 μL/well. Transfer Hela-HiBiT cells to 50 mL conical (#430290, Corning). Spin down at 1000 rpm for 5 min using tabletop centrifuge (SPINCHRON 15, Beckman). Discard supernatant and resuspend cell pellet in modified EMEM (#30-2003, ATCC) cell culture media containing 10% FBS (F2422-500ML, Sigma), and 1×Penicillin/Streptomycin (200 g/L) (30-002-CI, Corning) to a cell density of 125,000 cells/mL. Dispense 20 μL of resuspended Hela-HiBit cells per well in 384-well TC treated plate (#12-565-343, Thermo Scientific) using standard cassette (#50950372, Thermo Scientific) on Multidrop Combi (#5840310, Thermo Scientific) inside laminar flow cabinet. Dispense test compounds onto plates using digital liquid dispenser (D300E, Tecan). Incubate plates in humidified tissue culture incubator @37° C. for 18 hours. Add 20 μL of prepared Nano-Glo® HiBiT Lytic detection buffer (N3050, Promega) to each well of 384-well plate using small tube cassette (#24073295, Thermo Scientific) on Multidrop Combi, incubate @RT for 30-60 min. Read plates on microplate reader (Envision 2105, PerkinElmer) using 384 well Ultra-Sensitive luminescence mode. Raw data files and compound information reports are swept into centralized data lake and deconvoluted using automated scripts designed by TetraScience, Inc. Data analysis, curve-fitting and reporting done in Dotmatics Informatics Suite using Screening Ultra module.

SMARCA2-HiBiT = target: T2, SMARCA2-HiBiT (Homo sapiens, UniProt P51531); experiment: SMARCA2 HiBiT degradation assay in HeLa cells; type: cell-based; details: 18 hours incubation; for DC50: read-out: HeLa_HiBit-SM2 DC50; for Dmax: HeLa, read-out: HeLa-HiBit-SM2 Dmax (%)
T2 construct: SMARCA2-HiBiT knock-in Hela monoclonal cell (CS302366); host or cells: HeLa monoclonal knock-in line (CRISPR HiBiT knock-in at the endogenous locus, heterozygous)
T2 sequence (P51531 whole entry): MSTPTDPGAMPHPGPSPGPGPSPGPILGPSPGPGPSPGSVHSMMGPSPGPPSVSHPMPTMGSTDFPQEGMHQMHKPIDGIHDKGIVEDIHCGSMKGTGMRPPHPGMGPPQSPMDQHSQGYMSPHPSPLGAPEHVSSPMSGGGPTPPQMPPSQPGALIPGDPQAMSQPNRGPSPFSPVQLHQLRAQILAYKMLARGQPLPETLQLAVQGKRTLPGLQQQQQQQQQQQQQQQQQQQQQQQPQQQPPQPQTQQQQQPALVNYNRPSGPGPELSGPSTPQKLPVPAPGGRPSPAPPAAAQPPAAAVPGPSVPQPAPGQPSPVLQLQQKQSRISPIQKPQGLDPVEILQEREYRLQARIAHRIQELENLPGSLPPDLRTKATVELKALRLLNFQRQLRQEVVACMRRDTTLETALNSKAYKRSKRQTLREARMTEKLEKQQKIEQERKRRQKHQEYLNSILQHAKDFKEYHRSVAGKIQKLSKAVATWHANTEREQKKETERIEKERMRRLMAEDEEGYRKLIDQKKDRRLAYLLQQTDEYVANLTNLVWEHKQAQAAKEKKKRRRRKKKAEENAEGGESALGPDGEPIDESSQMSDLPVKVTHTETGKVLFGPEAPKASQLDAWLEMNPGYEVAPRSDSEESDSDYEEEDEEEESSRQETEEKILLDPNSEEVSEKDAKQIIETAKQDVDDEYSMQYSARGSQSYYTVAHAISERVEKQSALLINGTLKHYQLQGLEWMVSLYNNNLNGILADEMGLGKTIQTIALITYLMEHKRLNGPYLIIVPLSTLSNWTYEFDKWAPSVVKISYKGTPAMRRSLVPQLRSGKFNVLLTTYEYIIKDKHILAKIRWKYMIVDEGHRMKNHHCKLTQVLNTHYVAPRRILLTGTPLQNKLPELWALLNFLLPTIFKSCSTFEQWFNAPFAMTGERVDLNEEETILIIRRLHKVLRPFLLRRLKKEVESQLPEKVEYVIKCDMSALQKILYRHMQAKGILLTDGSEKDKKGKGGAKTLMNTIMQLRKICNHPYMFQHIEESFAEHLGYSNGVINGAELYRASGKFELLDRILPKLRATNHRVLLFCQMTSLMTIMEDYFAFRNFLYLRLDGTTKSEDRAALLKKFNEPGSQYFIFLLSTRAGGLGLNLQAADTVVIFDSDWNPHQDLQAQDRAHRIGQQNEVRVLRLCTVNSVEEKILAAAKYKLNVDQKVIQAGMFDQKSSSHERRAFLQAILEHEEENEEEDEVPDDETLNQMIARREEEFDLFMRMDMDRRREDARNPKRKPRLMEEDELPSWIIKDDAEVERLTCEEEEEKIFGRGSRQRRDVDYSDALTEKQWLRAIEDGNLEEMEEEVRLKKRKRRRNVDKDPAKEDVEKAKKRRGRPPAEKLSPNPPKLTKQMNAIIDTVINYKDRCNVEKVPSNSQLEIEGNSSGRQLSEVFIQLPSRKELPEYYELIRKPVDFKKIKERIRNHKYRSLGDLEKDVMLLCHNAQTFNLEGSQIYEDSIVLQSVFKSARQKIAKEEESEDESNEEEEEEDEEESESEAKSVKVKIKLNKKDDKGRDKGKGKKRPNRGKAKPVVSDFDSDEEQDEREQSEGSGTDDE
Procedure: as §1, §2, §3

SMILES | DC50 (SMARCA4-HiBiT) | Dmax (SMARCA4-HiBiT) | DC50 (SMARCA2-HiBiT) | Dmax (SMARCA2-HiBiT) | HeLa-HiBit-SM4 Dmax (%) (SMARCA4-HiBiT) | HeLa-HiBit-SM2 Dmax (%) (SMARCA2-HiBiT)
O=C1CCC(N2C(=O)c3ccc(N4CCC(CN5CCC(CN6CCN7c8cc(-c9ccccc9O)nnc8NC[C@H]7C6)C5)CC4)cc3C2=O)C(=O)N1 (stereo partly drawn) [Example 33, 2-(2,6-dioxopiperidin-3-yl)-5-(4-((3-(((S)-2-(2-hydroxyphenyl)-5,6,6a,7,9,10-hexahydro-8H-pyrazino[1′,2′:4,5]pyrazino[2,3-c]pyridazin-8-yl)methyl)pyrrolidin-1-yl)methyl)piperidin-1-yl)isoindoline-1,3-dione] | < 10 nM | 75 to 85% | < 10 nM | > 85% |  | 
O=C1CCC(N2Cc3ccc(N4CCC(CN5CCN(C(=O)N6CCN7c8cc(-c9ccccc9O)nnc8NC[C@H]7C6)CC5)CC4)cc3C2=O)C(=O)N1 (stereo partly drawn) [Example 95, 3-(6-(4-((4-((S)-2-(2-hydroxyphenyl)-6,6a,7,8,9,10-hexahydro-5H-pyrazino [1′,2′:4,5]pyrazino[2,3-c]pyridazine-8-carbonyl)piperazin-1-yl)methyl)piperidin-1-yl)-1-oxoisoindolin-2-yl)piperidine-2,6-dione] | < 10 nM | 75 to 85% | < 10 nM | > 85% |  | 
CN(C(=O)N1CCN2c3cc(-c4ccccc4O)nnc3NC[C@H]2C1)C1CCN(CC2CCN(c3ccc4c(c3)CN(C3CCC(=O)NC3=O)C4=O)CC2)CC1 (stereo partly drawn) [Example 139, (6aS)-N-(1-((1-(2-(2,6-dioxopiperidin-3-yl)-1-oxoisoindolin-5-yl)piperidin-4-yl)methyl)piperidin-4-yl)-2-(2-hydroxyphenyl)-N-methyl-5,6,6a,7,9,10-hexahydro-8H-pyrazino[1′,2′:4,5]pyrazino[2,3-c]pyridazine-8-carboxamide] | < 10 nM | > 85% | < 10 nM | > 85% |  | 
O=C1CCC(N2Cc3ccc(N4CCOC(CN5CCN(C(=O)N6CCN7c8cc(-c9ccccc9O)nnc8NC[C@H]7C6)CC5)C4)cc3C2=O)C(=O)N1 (stereo partly drawn) [Example 111, 3-(6-(2-((4-((S)-2-(2-hydroxyphenyl)-6,6a,7,8,9,10-hexahydro-5H-pyrazino[1′,2′:4,5]pyrazino[2,3-c]pyridazine-8-carbonyl)piperazin-1-yl)methyl)morpholino)-1-oxoisoindolin-2-yl)piperidine-2,6-dione] | 10 to 100 nM | 50 to 75% | < 10 nM | 50 to 75% |  | 
O=C1CCC(N2C(=O)c3ccc(N4CC5(CC(CN6CCC(CN7CCN8c9cc(-c%10ccccc%10O)nnc9NC[C@H]8C7)CC6)C5)C4)cc3C2=O)C(=O)N1 (stereo partly drawn) [Example 147, 2-(2,6-dioxopiperidin-3-yl)-5-(6-((4-(((S)-2-(2-hydroxyphenyl)-5,6,6a,7,9,10-hexahydro-8H-pyrazino[1′,2′:4,5]pyrazino[2,3-c]pyridazin-8-yl)methyl)piperidin-1-yl)methyl)-2-azaspiro[3.3]heptan-2-yl)isoindoline-1,3-dione] | < 10 nM | > 85% | < 10 nM | > 85% |  | 
O=C1CCC(N2C(=O)c3ccc(N4CCC(F)(CN5CCC(CN6CCN7c8cc(-c9ccccc9O)nnc8NC[C@H]7C6)CC5)CC4)cc3C2=O)C(=O)N1 (stereo partly drawn) [Example 48, 2-(2,6-dioxopiperidin-3-yl)-5-(4-fluoro-4-((4-(((S)-2-(2-hydroxyphenyl)-5,6,6a,7,9,10-hexahydro-8H-pyrazino[1′,2′:4,5]pyrazino[2,3-c]pyridazin-8-yl)methyl)piperidin-1-yl)methyl)piperidin-1-yl)isoindoline-1,3-dione] | < 10 nM | 75 to 85% | < 10 nM | > 85% |  | 

Results, then the molecule that gave them:

DC50 (SMARCA4-HiBiT) | Dmax (SMARCA4-HiBiT) | DC50 (SMARCA2-HiBiT) | Dmax (SMARCA2-HiBiT) | HeLa-HiBit-SM4 Dmax (%) (SMARCA4-HiBiT) | HeLa-HiBit-SM2 Dmax (%) (SMARCA2-HiBiT) | SMILES
< 10 nM |  | < 10 nM |  | A (A=Dmax>85%) | A (A=Dmax>85%) | O=C1CCC(N2C(=O)c3ccc(N4CC[C@H](CN5C[C@@H]6[C@H](C5)[C@H]6CN5CCN6c7cc(-c8cc(F)ccc8O)nnc7NC[C@H]6C5)[C@@H](F)C4)cc3C2=O)C(=O)N1 (stereo partly drawn) [Example 278, 2-(2,6-dioxopiperidin-3-yl)-5-((3R,4R)-3-fluoro-4-(((1R,5S,6R)-6-(((S)-2-(5-fluoro-2-hydroxyphenyl)-5,6,6a,7,9,10-hexahydro-8H-pyrazino[1′,2′:4,5]pyrazino[2,3-c]pyridazin-8-yl)methyl)-3-azabicyclo[3.1.0]hexan-3-yl)methyl)piperidin-1-yl) isoindoline-1,3-dione]
10 to 100 nM | 50 to 75% | < 10 nM | > 85% |  |  | O=C1CCC(N2C(=O)c3ccc(N4CCC(CN5C[C@@H]6[C@H](C5)[C@H]6CN5CCN6c7cc(-c8ccccc8O)nnc7NC[C@H]6C5)C(F)(F)C4)cc3C2=O)C(=O)N1 (stereo partly drawn) [Example 182, 5-[3,3-difluoro-4-[[(1S,5R)-6-[[(10S)-4-(2-hydroxyphenyl)-1,5,6,8,12-pentazatricyclo[8.4.0.02,7]tetradeca-2(7),3,5-trien-12-yl]methyl]-3-azabicyclo[3.1.0]hexan-3-yl]methyl]piperidin-1-yl]-2-(2,6-dioxopiperidin-3-yl)isoindole-1,3-dione]
< 10 nM | > 85% | < 10 nM | > 85% |  |  | O=C1CCC(N2C(=O)c3ccc(N4CCC(CN5CCC(CCN6CCN7c8cc(-c9ccccc9O)nnc8NC[C@H]7C6)CC5)CC4)cc3C2=O)C(=O)N1 (stereo partly drawn) [Example 229, 2-(2,6-dioxopiperidin-3-yl)-5-(4-((4-(2-((S)-2-(2-hydroxyphenyl)-5,6,6a,7,9,10-hexahydro-8H-pyrazino[1′,2′:4,5]pyrazino[2,3-c]pyridazin-8-yl)ethyl)piperidin-1-yl)methyl)piperidin-1-yl)isoindoline-1,3-dione]
< 10 nM | 75 to 85% | < 10 nM | > 85% |  |  | C[C@@H]1C[C@H](CN2C[C@@H]3[C@H](C2)[C@H]3CN2CCN3c4cc(-c5ccccc5O)nnc4NC[C@H]3C2)CCN1c1ccc2c(c1)C(=O)N(C1CCC(=O)NC1=O)C2=O (stereo partly drawn) [Example 183, 2-(2,6-dioxopiperidin-3-yl)-5-[(2R,4R)-4-[[(1S,5R)-6-[[(10S)-4-(2-hydroxyphenyl)-1,5,6,8,12-pentazatricyclo[8.4.0.02,7]tetradeca-2,4,6-trien-12-yl]methyl]-3-azabicyclo[3.1.0]hexan-3-yl]methyl]-2-methylpiperidin-1-yl] isoindole-1,3-dione]
10 to 100 nM | 75 to 85% | < 10 nM | > 85% |  |  | O=C1CCC(N2Cc3ccc(N4CC[C@H](CN5CCN(C(=O)N6CCN7c8cc(-c9ccccc9O)nnc8NC[C@H]7C6)CC5)[C@@H](F)C4)cc3C2=O)C(=O)N1 (stereo partly drawn) [Example 205, 3-[5-[(3R.4R)-3-fluoro-4-[[4-[(10S)-4-(2-hydroxyphenyl)-1,5,6,8,12-pentazatricyclo[8.4.0.02,7]tetradeca-2,4,6-triene-12-carbonyl]piperazin-1-yl]methyl]piperidin-1-yl]-3-oxo-1H-isoindol-2-yl]piperidine-2.6-dione]
< 10 nM | > 85% | < 10 nM | > 85% |  |  | O=C1CCC(N2Cc3cc(C4CCN(CC5CCN(CCN6CCN7c8cc(-c9ccccc9O)nnc8NC[C@H]7C6)CC5)CC4)ccc3C2=O)C(=O)N1 (stereo partly drawn) [Example 213, 3-(5-(1-((1-(2-((S)-2-(2-hydroxyphenyl)-5,6,6a,7,9,10-hexahydro-8H-pyrazino[1′,2′:4,5]pyrazino[2,3-c]pyridazin-8-yl)ethyl)piperidin-4-yl)methyl)piperidin-4-yl)-1-oxoisoindolin-2-yl)piperidine-2,6-dione]
